Measurements as given in publication PMC2864571 (2010).
Where two headings read alike, the source gives them in different places.

What was measured:
[1] = tested on: pfl RNA (RNA, riboswitch) GGUAAAAUAAGAAAAUCAUGCAACUGGCGGAAAUGGAGUUCACCAUAGGGAGCAUGAUUAAUAUAAGAAUCGACCGCCUGGGUAAAUUAAUA; assay: RNase T1 and V1 protection assay; settings: PRPP unstable; 1 mM in in-line probing list
[2] = tested on: SK209-52 RNA (RNA, riboswitch, extra 5' G residues added for transcription (asterisks in Figure 1b)) GGUACCUGUCACAACGGCUUCCUGGCGUGACGAGGUGACCUCAGUGGAGCAA; assay: in-line probing
[3] = tested on: SAM-Chlorobi RNA (longest construct) (RNA, mRNA element) GGAUUUUCCGGCAUCCCCAUUACCUAUGGACACGGUGCCAAAAGCUCUCUUGCGGGAGUUGUCCCCGGAGCUUGCCGAAAGGUUUCCCGUGUCCCGUUUGUCCCUCCGCGACAUUCACCUUCACGAGAAAACCGCAUCGGCAAACCGCCGGACACCUGCCGUUCUUGUCGUUCGAUUAACAAAAAACCGAAAGGGAAACUA; assay: in-line probing; settings: 1 mM tested; preliminary analysis
[4] = tested on: SAM-Chlorobi RNA (second construct, shorter 3' end) (RNA, mRNA element) GGAUUUUCCGGCAUCCCCAUUACCUAUGGACACGGUGCCAAAAGCUCUCUUGCGGGAGUUGUCCCCGGAGCUUGCCGAAAGGUUUCCCGUGUCCCGUUUGUCCC; assay: in-line probing; settings: 1 mM tested; preliminary analysis
[5] = tested on: SAM-Chlorobi RNA (third construct, shorter 3' end) (RNA, mRNA element) GGAUUUUCCGGCAUCCCCAUUACCUAUGGACACGGUGCCAAAAGCUCUCUUGCGGGAGUUGUCCCCGGAGCUUGCCGAAAGGUUUCC; assay: in-line probing; settings: 1 mM tested; preliminary analysis
[6] = tested on: SAM-Chlorobi RNA (fourth construct, shortest 3' end) (RNA, mRNA element) GGAUUUUCCGGCAUCCCCAUUACCUAUGGACACGGUGCCAAAAGCUCUCUUGCGGGAGUU; assay: in-line probing; settings: 1 mM tested; preliminary analysis

Compound	binding [1]	KD [2]	binding [3]	binding [4]	binding [5]	binding [6]	KD ([2]; SAM samples contain some SAH from spontaneous demethylation, apparent)
O=P(O)(O)OC[C@H]1O[C@H](OP(=O)(O)OP(=O)(O)O)[C@H](O)[C@@H]1O	no						
Nc1ncnc2c1ncn2[C@@H]1O[C@H](CSCC[C@H](N)C(=O)O)[C@@H](O)[C@H]1O		~ 4.3 μM	no	no	no	no	
C[S+](CC[C@H](N)C(=O)O)C[C@H]1O[C@@H](n2cnc3c(N)ncnc32)[C@H](O)[C@@H]1O (some centres unmarked)			no	no	no	no	~ 8.6 μM
